Consider 56 compounds from patent US8808702B2, “Sulfide, sulfoxide and sulfone chalcone analogues, derivatives thereof and therapeutic uses thereof” (Temple University-of the Commonwealth System of Higher …, priority 2006, dated 2014).

Experiment [1] deals with K562 (chronic myelogenous leukaemia). Put plainly: Effect of compounds on tumor cell lines (assay of Latham et al.), K562. In kind it is cell-based. As to conditions: K562 cells, 96 hours after treatment, 1 μM to 100 μM; read-out: K 562 potency (IC50). The method, boiled down:
(§1)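 After 96 h of exposure to compound (1–100 μM in DMSO; one compound at 0.1–100 μM), effects were scored by inverted-microscope inspection, with trypan blue viable counts by hemacytometer when required. Cells were seeded at 2.5×10^4 per well and dosed 24 h after plating.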

In the next experiment the test system is DU145 (prostate cancer). Put plainly: Effect of compounds on tumor cell lines (assay of Latham et al.), DU145. In kind it is cell-based. As to conditions: DU145 cells, 96 hours after treatment, 1 μM to 100 μM; read-out: DU 145 potency (IC50). The method, boiled down: as §1

Take `COc1cc(OC)c(C=C(SCc2ccc(Cl)cc2)C(=O)c2ccc([N+](=O)[O-])cc2)c(OC)c1` [Example 194]: the results for the IC50 (in experiment [1]; in the experiment on DU145 (prostate cancer)) were 50 to 100 µM and more than 100 µM, respectively.
The corresponding values for `O=C(C(=Cc1ccc(Cl)cc1Cl)SCc1ccc(Cl)cc1)c1ccc(Cl)cc1` [Example 195] are 25 to 50 µM and 25 to 50 µM.
Turning to `O=C(C(=Cc1ccc(O)cc1O)SCc1ccc(Cl)cc1)c1ccc(Cl)cc1` [Example 196], the IC50 (in experiment [1]; with DU145 (prostate cancer)) was 50 to 100 µM throughout.
Turning to `Cc1ccc(C)c(C=C(SCc2ccc(Cl)cc2)C(=O)c2ccc(Cl)cc2)c1` [Example 197], the IC50 (in experiment [1]; in the experiment on DU145 (prostate cancer)) was 10 to 25 µM each time.
As to `COc1ccccc1C=C(SCc1ccc(Cl)cc1)C(=O)c1ccc(Br)cc1` [Example 198], the IC50 – broadly, the concentration that gives 50% inhibition – in experiment [1] lay in the range of 10 to 25 µM; in the experiment on DU145 (prostate cancer), 1 to 10 µM.
In the same order, the values of `COc1ccccc1C=C(SCc1ccc(Cl)cc1)C(=O)c1ccc(Cl)cc1` [Example 199] are 1 to 10 µM and 1 to 10 µM.
`COc1ccccc1C=C(SCc1ccc(Cl)cc1)C(=O)c1ccc([N+](=O)[O-])cc1` [Example 200]: the IC50 in experiment [1] was in the range of 1 to 10 µM; in the experiment on DU145 (prostate cancer), 10 to 25 µM.
For the compound `O=C(C(=Cc1ccc[nH]1)SCc1ccc(Cl)cc1)c1ccc(Cl)cc1` [Example 201], the results for the IC50 (in experiment [1]; in the experiment with DU145 (prostate cancer)) were 10 to 25 µM and 25 to 50 µM, respectively.
In the same order, the values of `Cc1cc(C)cc(C=C(SCc2ccc(Cl)cc2)C(=O)c2ccc(Cl)cc2)c1` [Example 202] are 10 to 25 µM and 10 to 25 µM.
In the same order, the values of `COc1ccc(C=C(SCc2ccc(Cl)cc2)C(=O)c2ccc(Br)cc2)cc1O` [Example 203] are 1 to 10 µM and 1 to 10 µM.
On to `COc1ccc(C=C(SCc2ccc(Cl)cc2)C(=O)c2ccc(Cl)cc2)cc1O` [Example 204], for which the IC50 in experiment [1] is not above 1 µM; with DU145 (prostate cancer), 1 to 10 µM.
`Cc1ccsc1C=C(SCc1ccc(Cl)cc1)C(=O)c1ccc(Br)cc1` [Example 205]: the IC50 (in experiment [1]; in the experiment on DU145 (prostate cancer)) was 25 to 50 µM in each case.
Regarding `Cc1ccsc1C=C(SCc1ccc(Cl)cc1)C(=O)c1ccc(Cl)cc1` [Example 206], the IC50 (in experiment [1]; with DU145 (prostate cancer)) was 50 to 100 µM in each case.
For the compound `Cc1ccsc1C=C(SCc1ccc(Cl)cc1)C(=O)c1ccc([N+](=O)[O-])cc1` [Example 207], the IC50 (in experiment [1]; in the experiment with DU145 (prostate cancer)) was more than 100 µM throughout.
For the compound `CN(C)c1ccc(C=C(SCc2ccc(Cl)cc2)C(=O)c2ccc(Br)cc2)cc1` [Example 208], the IC50 lay in the range of 1 to 10 µM in experiment [1] and 10 to 25 µM with DU145 (prostate cancer).
The corresponding values for `CN(C)c1ccc(C=C(SCc2ccc(Cl)cc2)C(=O)c2ccc(C(=O)O)cc2)cc1` [Example 209] are 1 to 10 µM and 1 to 10 µM.
The corresponding values for `CN(C)c1ccc(C=C(SCc2ccc(Cl)cc2)C(=O)c2ccc(Cl)cc2)cc1` [Example 210] are 10 to 25 µM and more than 100 µM.
On to `CN(C)c1ccc(C=C(SCc2ccc(Cl)cc2)C(=O)c2ccc([N+](=O)[O-])cc2)cc1` [Example 211], for which the IC50 in experiment [1] was 50 to 100 µM; with DU145 (prostate cancer), more than 100 µM.
In the case of `O=C(C(=Cc1ccc(OCc2ccccc2)cc1)SCc1ccc(Cl)cc1)c1ccc(Cl)cc1` [Example 212], the IC50 in experiment [1] lay within 10 to 25 µM; in the experiment with DU145 (prostate cancer), 1 to 10 µM.
In the same order, the values of `O=C(O)c1ccc(C(=O)C(=Cc2ccc(Br)c([N+](=O)[O-])c2)SCc2ccc(Cl)cc2)cc1` [Example 213] are not above 1 µM and 1 to 10 µM.
In the same order, the values of `O=C(C(=Cc1ccc(Br)cc1)SCc1ccc(Cl)cc1)c1ccc(Br)cc1` [Example 214] are 1 to 10 µM and 1 to 10 µM.
Turning to `O=C(C(=Cc1ccc(Br)cc1)SCc1ccc(Cl)cc1)c1ccc(Cl)cc1` [Example 215], the IC50 (in experiment [1]; in the experiment on DU145 (prostate cancer)) was 1 to 10 µM each time.
Turning to `O=C(O)c1ccc(C(=O)C(=Cc2ccc(Cl)c([N+](=O)[O-])c2)SCc2ccc(Cl)cc2)cc1` [Example 216], the values for the IC50 (in experiment [1]; in the experiment with DU145 (prostate cancer)) were not above 1 µM and 1 to 10 µM, respectively.
As to `O=C(C(=Cc1ccc(Cl)cc1)SCc1ccc(Cl)cc1)c1ccccc1Cl` [Example 217], the IC50 in experiment [1] was 1 to 10 µM; in the experiment on DU145 (prostate cancer) it was 50 to 100 µM.
In the case of `O=C(C(=Cc1ccc(Cl)cc1)SCc1ccc(Cl)cc1)c1ccc(Br)cc1` [Example 218], the IC50 in experiment [1] fell in the range of 1 to 10 µM; in the experiment with DU145 (prostate cancer), 10 to 25 µM.
Turning to `O=C(C(=Cc1ccc(O)c([N+](=O)[O-])c1)SCc1ccc(Cl)cc1)c1ccc(Cl)cc1` [Example 220], the IC50 (in experiment [1]; with DU145 (prostate cancer)) was 10 to 25 µM in each case.
`O=C(C(=Cc1ccc(O)cc1)SCc1ccc(Cl)cc1)c1ccc(Br)cc1` [Example 221]: the IC50 in experiment [1] lay in the range of 1 to 10 µM; in the experiment on DU145 (prostate cancer), 10 to 25 µM.
In the case of `O=C(C(=Cc1ccc(O)cc1)SCc1ccc(Cl)cc1)c1ccc(Cl)cc1` [Example 222], the IC50 was in the range of 1 to 10 µM in experiment [1] and 10 to 25 µM in the experiment with DU145 (prostate cancer).
On to `CSc1ccc(C=C(SCc2ccc(Cl)cc2)C(=O)c2ccc(C(=O)O)cc2)cc1` [Example 223], for which the IC50 (in experiment [1]; with DU145 (prostate cancer)) was more than 100 µM in each case.
For the compound `CSc1ccc(C=C(SCc2ccc(Cl)cc2)C(=O)c2ccc(Cl)cc2)cc1` [Example 224], the IC50 lay in the range of 1 to 10 µM in experiment [1] and 25 to 50 µM in the experiment on DU145 (prostate cancer).
For `COc1ccc(C=C(SCc2ccc(Cl)cc2)C(=O)c2ccc(Br)cc2)cc1` [Example 225], the values for the IC50 (in experiment [1]; in the experiment on DU145 (prostate cancer)) were 1 to 10 µM and 10 to 25 µM, respectively.
Consider `COc1ccc(C=C(SCc2ccc(Cl)cc2)C(=O)c2ccc(Br)cc2)cc1` [Example 226], for which the IC50 in experiment [1] lay in the range of 1 to 10 µM; in the experiment on DU145 (prostate cancer), 25 to 50 µM.
The corresponding values for `COc1ccc(C=C(SCc2ccc(Cl)cc2)C(=O)c2ccc(C(=O)O)cc2)cc1` [Example 227] are 25 to 50 µM and 25 to 50 µM.
For the compound `COc1ccc(C=C(SCc2ccc(Cl)cc2)C(=O)c2ccc(Cl)cc2)cc1` [Example 228], the IC50 was in the range of 1 to 10 µM in experiment [1] and 10 to 25 µM in the experiment on DU145 (prostate cancer).
Take `Cc1ccc(C=C(SCc2ccc(Cl)cc2)C(=O)c2ccc(Br)cc2)s1` [Example 229]: the results for the IC50 (in experiment [1]; in the experiment with DU145 (prostate cancer)) were 50 to 100 µM and more than 100 µM, respectively.
The corresponding values for `Cc1ccc(C=C(SCc2ccc(Cl)cc2)C(=O)c2ccc(Cl)cc2)s1` [Example 230] are 50 to 100 µM and 50 to 100 µM.
As for `Cc1ccc(C=C(SCc2ccc(Cl)cc2)C(=O)c2ccc([N+](=O)[O-])cc2)s1` [Example 231], the IC50 (in experiment [1]; in the experiment on DU145 (prostate cancer)) was 25 to 50 µM each time.
For the compound `COc1cc(OC)c(C=C(SCc2ccc(F)cc2)C(=O)c2ccc(Br)cc2)c(OC)c1` [Example 233], the IC50 (in experiment [1]; in the experiment on DU145 (prostate cancer)) was 1 to 10 µM each time.
As to `COc1cc(OC)c(C=C(SCc2ccc(F)cc2)C(=O)c2ccc(Cl)cc2)c(OC)c1` [Example 234], the IC50 (in experiment [1]; in the experiment on DU145 (prostate cancer)) was 10 to 25 µM each time.
`Cc1ccc(C)c(C=C(SCc2ccc(F)cc2)C(=O)c2ccc(Br)cc2)c1` [Example 235]: the IC50 lay within 50 to 100 µM in experiment [1] and 1 to 10 µM in the experiment with DU145 (prostate cancer).
Take `O=C(C(=Cc1ccccc1OCc1ccccc1)SCc1ccc(F)cc1)c1ccc(Br)cc1` [Example 236]: the IC50 (in experiment [1]; with DU145 (prostate cancer)) was 1 to 10 µM in each case.
Take `COc1ccccc1C=C(SCc1ccc(F)cc1)C(=O)c1ccc(Cl)cc1` [Example 240]: the IC50 in experiment [1] was 1 to 10 µM; in the experiment on DU145 (prostate cancer), 10 to 25 µM.
In the same order, the values of `Cc1cc(C)cc(C=C(SCc2ccc(F)cc2)C(=O)c2ccc(Br)cc2)c1` [Example 242] are 1 to 10 µM and 10 to 25 µM.
The corresponding values for `COc1ccc(C=C(SCc2ccc(F)cc2)C(=O)c2ccc(C(=O)O)cc2)cc1O` [Example 244] are 1 to 10 µM and 10 to 25 µM.
`Cc1ccsc1C=C(SCc1ccc(F)cc1)C(=O)c1ccc(Br)cc1` [Example 246]: the IC50 in experiment [1] was more than 100 µM; with DU145 (prostate cancer), 50 to 100 µM.
`CCN(CC)CCNC(=O)c1c(C)[nH]c(C=C(SCc2ccc(F)cc2)C(=O)c2ccc(C(=O)O)cc2)c1C` [Example 248]: the IC50 (in experiment [1]; in the experiment with DU145 (prostate cancer)) was 50 to 100 µM in each case.
As for `CN(C)c1ccc(C=C(SCc2ccc(F)cc2)C(=O)c2ccc(Br)cc2)cc1` [Example 249], the values for the IC50 (in experiment [1]; in the experiment with DU145 (prostate cancer)) were 1 to 10 µM and 25 to 50 µM, respectively.
For the compound `CN(C)c1ccc(C=C(SCc2ccc(F)cc2)C(=O)c2ccc(C(=O)O)cc2)cc1` [Example 250], the figures for the IC50 (in experiment [1]; with DU145 (prostate cancer)) were 10 to 25 µM and 25 to 50 µM, respectively.
In the same order, the values of `O=C(O)c1ccc(C(=O)C(=Cc2ccc(Br)c([N+](=O)[O-])c2)SCc2ccc(F)cc2)cc1` [Example 252] are not above 1 µM and 1 to 10 µM.
As for `O=C(C(=Cc1ccc(Br)cc1)SCc1ccc(F)cc1)c1ccc(Br)cc1` [Example 253], the IC50 in experiment [1] was in the range of 1 to 10 µM; in the experiment on DU145 (prostate cancer), 25 to 50 µM.
Take `O=C(C(=Cc1ccc(Br)cc1)SCc1ccc(F)cc1)c1ccc(Cl)cc1` [Example 254]: the figures for the IC50 (in experiment [1]; in the experiment with DU145 (prostate cancer)) were 1 to 10 µM and 10 to 25 µM, respectively.
As to `O=C(O)c1ccc(C(=O)C(=Cc2ccc(Cl)c([N+](=O)[O-])c2)SCc2ccc(F)cc2)cc1` [Example 255], the IC50 in experiment [1] was not above 1 µM; in the experiment with DU145 (prostate cancer) it was 1 to 10 µM.
For `O=C(C(=Cc1ccc(Cl)cc1)SCc1ccc(F)cc1)c1ccc(Cl)cc1` [Example 256], the IC50 in experiment [1] was in the range of 1 to 10 µM; in the experiment on DU145 (prostate cancer), 10 to 25 µM.
For the compound `CCOc1ccc(C=C(SCc2ccc(F)cc2)C(=O)c2ccc(Br)cc2)cc1OC` [Example 257], the IC50 in experiment [1] was 1 to 10 µM; with DU145 (prostate cancer), 50 to 100 µM.
Take `O=C(C(=Cc1ccc(F)cc1C(F)(F)F)SCc1ccc(F)cc1)c1ccc(Br)cc1` [Example 260]: the IC50 (in experiment [1]; in the experiment on DU145 (prostate cancer)) was 10 to 25 µM in each case.
For `O=C(O)c1ccc(C(=O)C(=Cc2ccc(O)c([N+](=O)[O-])c2)SCc2ccc(F)cc2)cc1` [Example 262], the figures for the IC50 (in experiment [1]; with DU145 (prostate cancer)) were 50 to 100 µM and more than 100 µM, respectively.
